Patent US8653023B1, “Dual beneficial effect of dopamine enhancing and neuroprotective actions of PKC delta inhibitors for treatment of Parkinson's disease” (Iowa State University Research Foundation, Inc., priority 2006, dated 2014)
Where two headings read alike, the source gives them in different places.

Columns and labels:
[1] = system: primary mesencephalic dopaminergic neuronal cells; assay type: cell-based, mice; details: 10 μM MPP+, 48 hrs
Method: Primary mesencephalic neuronal cultures were prepared from the ventral mesencephalon of gestational 16-18-day-old mice embryos as described previously (Yang et al., 2004). Mesencephalic tissues were dissected and maintained in ice-cold Ca^2+-free HESS and then dissociated in HESS solution containing trypsin-EDTA (0.25%) for 20 min at 37° C. The dissociated cells were then plated at equal density (0.5×10^6 cells) in 30-mm-diameter tissue culture wells precoated with poly-D-lysine (1 mg/ml). Cultures were maintained in a chemically defined medium consisting of neurobasal medium fortified with B-27 supplements, L-glutamine (500 μM), penicillin (100 IU/ml), and streptomycin (100 μg/ml) (Life Technologies). The cells were maintained in a humidified CO2 incubator (5% CO2, 37° C.) for 24 hr and then treated with cytosine arabinoside (10 μM) for 24 hr to inhibit glial cell proliferation. Half of the culture medium was replaced every 2 days. Approximately 6-7-day-old cultures were used for experiments. […]
After treatment, the primary mesencephalic neurons were fixed with 4% paraformaldehyde and processed for immunocytotochemical staining. […] Then the coverslips containing stained cells were washed with PBS, mounted on a slide, and viewed under a Nikon inverted fluorescence microscope (Model TE-2000U); images were captured with a SPOT digital camera (Diagnostic Instruments, Sterling Heights, Mich.).
We used Metamorph software (Universal Imaging, Version 5.0) for measurement of TH^+ cells and neuronal processes in primary neurons from each coverslip. For measurement of TH cell count, the images were first thresholded, and then neuronal count and volume were measured using the Integrated Morphometry Analysis (IMA) function. The data were logged to an Excel spreadsheet with defined row and column positions and then analyzed. […] The data were exported to an Excel spreadsheet and analyzed. TH^+ neurons and their processes were counted in at least six individual cultures for each treatment. This method is a modified version of methodology recently used for quantification of neuronal processes.

[2] = system: MPTP-treated C57 black mice; assay: TH+ neuron count in substantia nigra pars compacta of MPTP mice (stereology); assay type: in vivo
Method: Six to 8-week-old […] mice weighing 30 g were housed in standard conditions: constant temperature (22±1° C.), humidity (relative, 30%) and a 12-h light/dark cycle, and were allowed free access to food and water. The animals and protocol procedures were approved and supervised by the Committee on Animal Care (COAC) at the Iowa State University. Rottlerin was dissolved in 1% dimethyl sulfoxide (DMSO) and was administered intraperitoneally at various doses. An equal volume of DMSO was given to controls. Rottlerin and DMSO administrations were started 24 h before the injections of the MPTP and continued for 5 days in the MPTP model. In the chronic regimens of MPTP administration, MPTP in phosphate-buffered saline (PBS) was injected intraperitoneally at doses of 30 mg/kg, once a day. Mice were sacrificed 2 days after the MPTP injections, and the striata were dissected for catecholamine analysis. Additionally, rottlerin alone (0.3-20 mg/kg) was administered via intraperitoneally or orally and then brain tissues were subjected to neurochemical analyses (FIG. 8). The mesencephalons were fixed in 4% paraformaldehyde for 5 days for tyrosine hydroxylase (TH) immunostaining.
Brains removed following cervical dislocation were post-fixed in paraformaldehyde and used for TH immunolabelling and stereological studies. Fixed brains were cut into 30-μm sections and collected in cryoprotectant. Sections were rinsed in PBS at room temperature before immunostaining, then incubated with a anti-TH antibody as described (Thiruchelvam, McCormack et al. 2003; Thiruchelvam, Powers et al. 2004). The total number of TH^+ and TH Nissl-stained neurons in the SNpc were counted using the optical fractionator and previously described counting criteria (Thiruchelvam, McCormack et al. 2003; Thiruchelvam, Powers et al. 2004). After delineation of the region at low magnification (4× objective), every fourth section from the entire substantia nigra was sampled at higher magnification (100× objective) using StereoImager (Microbrightfield, Vt.).

PKA = details: cited from earlier work
N27 cells = assay: Cellular DA and DOPAC levels in N27 cells (HPLC-EC); assay type: cell-based, rat; details: N27 cells; rottlerin vs vehicle, PKCδ-DN vs LacZ
Method: PC12 cells, differentiated N27 dopaminergic cells and primary mesencephalic neurons were exposed to 1-10 μM rottlerin for the duration of the experiment. DMSO (0.01%) was used as vehicle control. PKCδ-DN- and Lac Z-expressing N27 cells were only treated with 0.01% DMSO. […] Untreated or vehicle treated cells were used as control samples.
DA and DOPAC levels in PC12, N27 cells and in brain striatal tissues were determined by high-performance liquid chromatography with electrochemical detection (HPLC-EC); samples were prepared as described previously (Kitazawa et al., 2001). The DA and DOPAC levels were measured as pg/mg protein and expressed as percent of control.

[3] = system: bone marrow-derived macrophages; details: cited from earlier work

CC(=O)c1c(O)c(C)c(O)c(Cc2c(O)c3c(c(C(=O)/C=C/c4ccccc4)c2O)OC(C)(C)C=C3)c1O [rottlerin]
MPP+-induced degeneration of TH+ neurons and their processes ([1]; 0.3 μM rottlerin): significantly blocked | MPP+-induced degeneration of TH+ neurons and their processes ([1]; 1 μM rottlerin): significantly blocked | protective effect against SNpc cell loss ([2]; cotreatment with 20 mg/kg rottlerin): 37% | cell loss in SNpc ([2]; cotreatment with 20 mg/kg rottlerin and MPTP 30 mg/kg): 13% | inhibition (PKA): weak inhibitor | DA level (N27 cells): 2748±208 pg/μg protein | DOPAC levels (N27 cells): 2564±848.19 pg/μg protein | increase in DA level (N27 cells): 4 fold | increase in DOPAC levels (N27 cells): 4 fold | silica-induced apoptosis as measured by DNA fragmentation [3]: reduced
